{"source": "patent US10010648B2", "about": "“Transdermal delivery system” (Edixomed Limited, priority 2013, dated 2018)", "origin": "cited, not measured here", "key": {"[1]": {"conditions": "healthy 70 kg-adult"}}, "data": [{"smiles": "C=CC(=O)O", "note": "[acrylic acid]", "values": [{"measurement": "pKa", "value": "4.3 to 4.4"}]}, {"smiles": "COC(=O)[C@H]1[C@@H](OC(=O)c2ccccc2)C[C@@H]2CC[C@H]1N2C", "note": "[cocaine]", "values": [{"measurement": "generally accepted safe dosage for topical anaesthesia", "setting": "[1]", "value": 200, "unit": "mg"}]}, {"smiles": "CCN(CC)CC(=O)Nc1c(C)cccc1C", "note": "[lidocaine]", "values": [{"measurement": "generally accepted safe dosage for topical anaesthesia", "setting": "[1]", "value": 750, "unit": "mg"}]}, {"smiles": "CCCCNc1ccc(C(=O)OCCN(C)C)cc1", "note": "[tetracaine]", "values": [{"measurement": "generally accepted safe dosage for topical anaesthesia", "setting": "[1]", "value": 50, "unit": "mg"}]}]}
